Patent publication EP4527386A1, “ANTI-CANCER PHARMACEUTICAL COMPOSITION COMPRISING REGORAFENIB” (Eberhard-Karls-Universität Tübingen Universitätsklinikum, priority 2023, dated 2025)

How the values were obtained:
glioma cell lines [1] = experiment: 72-hour acute cytotoxicity synergy assay in combination with regorafenib (ZIP synergy score); format: cell-based
Procedure: The combined inhibition of a resistance mechanism or a synthetic lethal interactor with regorafenib treatment should enhance the effect of regorafenib alone. Therefore, drugs targeting the different identified gene products were used in acute cytotoxicity synergy assays in combination with regorafenib to analyze the synergistic effect of drug combinations. Each of the 15 drugs was tested in a 72-hour acute cytotoxicity synergy assay in combination with regorafenib on six glioma cell lines in two independent runs. The calculated ZIP synergy score for each combination indicates if a combination is synergistic, the higher the score the stronger is the synergism. For the heatmaps shown in Fig. 3 the synergy scores were normalized within each cell line taking the highest synergy score detected in this cell line as 100% and a synergy score of 0 as 0%. For each target shown here identified in the CRISPR/Cas9 screens, the inventors detected a synergistic effect of the drug combination (for at least one drug when several drugs for the same target were tested).

glioma cell lines [2] = experiment: clonogenic survival assay; format: cell-based; settings: combination with regorafenib vs regorafenib monotherapy
SMA560 cells = experiment: in vivo glioma model, intracranially transplanted SMA560 cells; settings: VM/Dk mice intracranially transplanted with SMA560 cells; treated for three weeks; experiment stopped at day 120; solvent control 58 days
Procedure: For drugs targeting Bcl2 family members (navitoclax, venetoclax), MEK1/MAP2K1 (selumetinib, trametinib), integrins (cilengitide), and ARAF (sorafenib) further assays were performed to analyze the synergistic effect in combination with Regorafenib. […] The inventors extracted primary cells from glioblastoma tissue to test our drug combinations ex vivo. Analyzing the combination effect on cell viability of regorafenib and navitoclax on four glioblastoma primary cultures the observed effect of the combination treatment was in each model synergistic compared to the predicted effect calculated from both monotherapies (Figs. 4 E and F). The combination of navitoclax and regorafenib was further validated in vivo in VM/Dk mice intracranially transplanted with SMA560 cells (data not shown). The mice were treated either with the drug combination, regorafenib, or navitoclax monotherapies, or a solvent control for three weeks. Time until onset of neurological symptoms was observed. The solvent control group reached its median after 58 days, navitoclax monotherapy after 60 days, and regorafenib monotherapy after 67 days.

Row | SMILES | synergistic effect in acute cytotoxicity synergy assays (ZIP synergy score) (glioma cell lines [1]) | number of clones in clonogenic survival assays, combination treatment compared with regorafenib monotherapy (glioma cell lines [2]) | Time until onset of neurological symptoms (median) (SMA560 cells)
1 | CC1(C)CCC(c2ccc(Cl)cc2)=C(CN2CCN(c3ccc(C(=O)NS(=O)(=O)c4ccc(N[C@H](CCN5CCOCC5)CSc5ccccc5)c(S(=O)(=O)C(F)(F)F)c4)cc3)CC2)C1 [navitoclax] | synergistic effects | significantly reduced numbers of clones | 60 days
2 | CNC(=O)c1cc(Oc2ccc(NC(=O)Nc3ccc(Cl)c(C(F)(F)F)c3)c(F)c2)ccn1 [regorafenib] | – | – | 67 days
3 | CC1(C)CCC(CN2CCN(c3ccc(C(=O)NS(=O)(=O)c4ccc(NCC5CCOCC5)c([N+](=O)[O-])c4)c(Oc4cnc5[nH]ccc5c4)c3)CC2)=C(c2ccc(Cl)cc2)C1 [venetoclax] | synergistic effects | – | –
